# Laboratory results taken from patent publication US20200390729A1, “OPHTHALMIC TOPICAL COMPOSITION COMPRISING DOBESILIC ACID FOR TREATING DISEASES OF THE POSTERIOR SEGMENT OF THE EYE” (LABORATORIOS SALVAT, S.A., priority 2017, published 2020).
# Like-named read-outs stand apart in the source and are kept apart here.
# Experiment: Ocular distribution of CDO in rats, single dose topical ocular vs. oral
# Assay type: in vivo, Sprague Dawley (SD) rat
# Set-up: key to CDO concentrations Retina / CDO concentrations Optic nerve: —: non-detectable
# Description: In Sprague Dawley (SD) rat, weighing approximately 200 g, CDO was administered by topical ocular instillation (10 μl/eye) at 10 mg/ml (composition 2 of Example 1), at 100 mg/ml (composition 5 of Example 1) or by oral gavage at 50 mg/kg, at 200 mg/kg or at 750 mg/kg in aqueous solution (from compositions 1, 3 and 4, respectively, of Example 1). At 15, 60, 180 and 360 minutes post-administration, animals were euthanized and plasma and ocular tissues including sclera, cornea, retina, vitreous humour/lens and optic nerve were collected.
# Bioanalysis of CDO was performed depending on the type of matrix. In the case of plasma, proteins were precipitated using methanol. In the case of tissues, samples were grinded in a Mini Bead Beater using zirconium beads and methanol/water (1:1) (v/v) as solvent. After centrifugation, samples were analyzed by UPLC-MS/MS.
# Chromatographic separation was carried out using an Acquity CSH Fluoro Phenyl column (1.7 μm, 50×2.1 mm). Mobile phase consisted of a gradient using 0.1% formic acid in water and acetonitrile from 5% to 45% in 4.5 min at a flow rate of 0.6 ml/min.
# With regard to the mass spectrometric detection, the electrospray ionization source worked to record negative ions. Multiple Reaction Monitoring (MRM) acquisition mode of the deprotonated molecular ions was performed. The transition monitored for CDO was m/z 189.0→80.1 with a cone voltage of 45 V and collision energy of 25 eV.
# [1] = rat, oral 50 mg/Kg = 10 mg, 0.25 h
# [2] = rat, oral 50 mg/Kg = 10 mg, 1 h
# [3] = rat, topical eye 10 mg/ml (eye drop of 10 μl) = 0.1 mg, 3 h
structure (smiles),measurement,setting,value
"O=S(=O)(O)c1cc(O)ccc1O [CDO, Calcium dobesilate monohydrate]",concentration at 0.25 h,"Sprague Dawley, cornea, rat, topical eye 10 mg/ml (eye drop of 10 μl) = 0.1 mg, 0.25 h, read-out: CDO concentrations Cornea",4610 ng/g
same,concentration at 1 h,"Sprague Dawley, cornea, rat, topical eye 10 mg/ml (eye drop of 10 μl) = 0.1 mg, 1 h, read-out: CDO concentrations Cornea",1010 ng/g
same,concentration at 3 h,"Sprague Dawley, cornea, rat, topical eye 10 mg/ml (eye drop of 10 μl) = 0.1 mg, 3 h, read-out: CDO concentrations Cornea",1990 ng/g
same,concentration at 0.25 h,"Sprague Dawley, cornea, rat, topical eye 100 mg/ml (eye drop of 10 μl) = 1 mg, 0.25 h, read-out: CDO concentrations Cornea",58000 ng/g
same,concentration at 1 h,"Sprague Dawley, cornea, rat, topical eye 100 mg/ml (eye drop of 10 μl) = 1 mg, 1 h, read-out: CDO concentrations Cornea",1720 ng/g
same,concentration at 3 h,"Sprague Dawley, cornea, rat, topical eye 100 mg/ml (eye drop of 10 μl) = 1 mg, 3 h, read-out: CDO concentrations Cornea",3110 ng/g
same,concentration at 3 h,"Sprague Dawley, optic nerve, rat, oral 50 mg/Kg = 10 mg, 3 h, read-out: CDO concentrations Optic nerve",1890 ng/g
same,concentration at 6 h,"Sprague Dawley, optic nerve, rat, oral 50 mg/Kg = 10 mg, 6 h, read-out: CDO concentrations Optic nerve",410 ng/g
same,concentration at 0.25 h,"Sprague Dawley, plasma, rat, oral 200 mg/Kg = 40 mg, 0.25 h, read-out: CDO concentrations Plasma",3100 ng/g
same,concentration at 1 h,"Sprague Dawley, plasma, rat, oral 200 mg/Kg = 40 mg, 1 h, read-out: CDO concentrations Plasma",9040 ng/g
same,concentration at 3 h,"Sprague Dawley, plasma, rat, oral 200 mg/Kg = 40 mg, 3 h, read-out: CDO concentrations Plasma",11400 ng/g
same,concentration at 0.25 h,"Sprague Dawley, plasma, rat, oral 750 mg/Kg = 150 mg, 0.25 h, read-out: CDO concentrations Plasma",12600 ng/g
same,concentration at 1 h,"Sprague Dawley, plasma, rat, oral 750 mg/Kg = 150 mg, 1 h, read-out: CDO concentrations Plasma",28800 ng/g
same,concentration at 3 h,"Sprague Dawley, plasma, rat, oral 750 mg/Kg = 150 mg, 3 h, read-out: CDO concentrations Plasma",47600 ng/g
same,concentration at 0.25 h,"Sprague Dawley, retina/choroid, rat, topical eye 10 mg/ml (eye drop of 10 μl) = 0.1 mg, 0.25 h, read-out: CDO concentrations Retina/Choroid",1830 ng/g
same,concentration at 1 h,"Sprague Dawley, retina/choroid, rat, topical eye 10 mg/ml (eye drop of 10 μl) = 0.1 mg, 1 h, read-out: CDO concentrations Retina/Choroid",600 ng/g
same,concentration at 3 h,"Sprague Dawley, retina/choroid, rat, topical eye 10 mg/ml (eye drop of 10 μl) = 0.1 mg, 3 h, read-out: CDO concentrations Retina/Choroid",2150 ng/g
same,concentration at 0.25 h,"Sprague Dawley, retina/choroid, rat, topical eye 100 mg/ml (eye drop of 10 μl) = 1 mg, 0.25 h, read-out: CDO concentrations Retina/Choroid",17600 ng/g
same,concentration at 0.25 h,"Sprague Dawley, retina, rat, oral 200 mg/Kg = 40 mg, 0.25 h, read-out: CDO concentrations Retina",110 ng/g
same,concentration at 1 h,"Sprague Dawley, retina, rat, oral 200 mg/Kg = 40 mg, 1 h, read-out: CDO concentrations Retina",470 ng/g
same,concentration at 3 h,"Sprague Dawley, retina, rat, oral 200 mg/Kg = 40 mg, 3 h, read-out: CDO concentrations Retina",1040 ng/g
same,concentration at 0.25 h,"Sprague Dawley, retina, rat, oral 750 mg/Kg = 150 mg, 0.25 h, read-out: CDO concentrations Retina",670 ng/g
same,concentration at 1 h,"Sprague Dawley, retina, rat, oral 750 mg/Kg = 150 mg, 1 h, read-out: CDO concentrations Retina",1340 ng/g
same,concentration at 3 h,"Sprague Dawley, retina, rat, oral 750 mg/Kg = 150 mg, 3 h, read-out: CDO concentrations Retina",2420 ng/g
same,concentration at 0.25 h,"Sprague Dawley, retina, rat, topical eye 10 mg/ml (eye drop of 10 μl) = 0.1 mg, 0.25 h, read-out: CDO concentrations Retina",100 ng/g
same,concentration at 0.25 h,"Sprague Dawley, retina, rat, topical eye 100 mg/ml (eye drop of 10 μl) = 1 mg, 0.25 h, read-out: CDO concentrations Retina",2030 ng/g
same,concentration at 1 h,"Sprague Dawley, retina, rat, topical eye 100 mg/ml (eye drop of 10 μl) = 1 mg, 1 h, read-out: CDO concentrations Retina",640 ng/g
same,concentration at 3 h,"Sprague Dawley, retina, rat, topical eye 100 mg/ml (eye drop of 10 μl) = 1 mg, 3 h, read-out: CDO concentrations Retina",250 ng/g
same,concentration at 6 h,"Sprague Dawley, retina, rat, topical eye 100 mg/ml (eye drop of 10 μl) = 1 mg, 6 h, read-out: CDO concentrations Retina",130 ng/g
same,concentration at 0.25 h,"Sprague Dawley, sclera, rat, topical eye 10 mg/ml (eye drop of 10 μl) = 0.1 mg, 0.25 h, read-out: CDO concentrations Sclera",170 ng/g
same,concentration at 1 h,"Sprague Dawley, sclera, rat, topical eye 10 mg/ml (eye drop of 10 μl) = 0.1 mg, 1 h, read-out: CDO concentrations Sclera",330 ng/g
same,concentration at 3 h,"Sprague Dawley, sclera, rat, topical eye 10 mg/ml (eye drop of 10 μl) = 0.1 mg, 3 h, read-out: CDO concentrations Sclera",770 ng/g
same,concentration at 0.25 h,"Sprague Dawley, sclera, rat, topical eye 100 mg/ml (eye drop of 10 μl) = 1 mg, 0.25 h, read-out: CDO concentrations Sclera",3540 ng/g
same,concentration at 1 h,"Sprague Dawley, sclera, rat, topical eye 100 mg/ml (eye drop of 10 μl) = 1 mg, 1 h, read-out: CDO concentrations Sclera",1140 ng/g
same,concentration at 3 h,"Sprague Dawley, sclera, rat, topical eye 100 mg/ml (eye drop of 10 μl) = 1 mg, 3 h, read-out: CDO concentrations Sclera",220 ng/g
same,concentration at 0.25 h,"Sprague Dawley, vitreous humour/lens, rat, topical eye 10 mg/ml (eye drop of 10 μl) = 0.1 mg, 0.25 h, read-out: CDO concentrations Vitreous humour/lens",1480 ng/g
same,concentration at 1 h,"Sprague Dawley, vitreous humour/lens, rat, topical eye 10 mg/ml (eye drop of 10 μl) = 0.1 mg, 1 h, read-out: CDO concentrations Vitreous humour/lens",1680 ng/g
same,concentration at 3 h,"Sprague Dawley, vitreous humour/lens, rat, topical eye 10 mg/ml (eye drop of 10 μl) = 0.1 mg, 3 h, read-out: CDO concentrations Vitreous humour/lens",190 ng/g
same,concentration at 0.25 h,"Sprague-Dawley, optic nerve, rat, topical eye 10 mg/ml (eye drop of 10 μl) = 0.1 mg, 0.25 h, read-out: CDO concentrations Optic nerve",5300 ng/g
same,concentration at 1 h,"Sprague-Dawley, optic nerve, rat, topical eye 10 mg/ml (eye drop of 10 μl) = 0.1 mg, 1 h, read-out: CDO concentrations Optic nerve",850 ng/g
same,concentration at 6 h,"Sprague-Dawley, optic nerve, rat, topical eye 10 mg/ml (eye drop of 10 μl) = 0.1 mg, 6 h, read-out: CDO concentrations Optic nerve",250 ng/g
same,concentration at 0.25 h,"Sprague-Dawley, optic nerve, rat, topical eye 100 mg/ml (eye drop of 10 μl) = 1 mg, 0.25 h, read-out: CDO concentrations Optic nerve",13700 ng/g
same,concentration at 1 h,"Sprague-Dawley, optic nerve, rat, topical eye 100 mg/ml (eye drop of 10 μl) = 1 mg, 1 h, read-out: CDO concentrations Optic nerve",2910 ng/g
same,concentration at 3 h,"Sprague-Dawley, optic nerve, rat, topical eye 100 mg/ml (eye drop of 10 μl) = 1 mg, 3 h, read-out: CDO concentrations Optic nerve",1920 ng/g
same,concentration at 6 h,"Sprague-Dawley, optic nerve, rat, topical eye 100 mg/ml (eye drop of 10 μl) = 1 mg, 6 h, read-out: CDO concentrations Optic nerve",2650 ng/g
same,concentration at 0.25 h,"Sprague-Dawley, plasma, rat, topical eye 10 mg/ml (eye drop of 10 μl) = 0.1 mg, 0.25 h, read-out: CDO concentrations Plasma",10 ng/g
same,concentration at 1 h,"Sprague-Dawley, plasma, rat, topical eye 10 mg/ml (eye drop of 10 μl) = 0.1 mg, 1 h, read-out: CDO concentrations Plasma",10 ng/g
same,concentration at 3 h,"Sprague-Dawley, plasma, rat, topical eye 10 mg/ml (eye drop of 10 μl) = 0.1 mg, 3 h, read-out: CDO concentrations Plasma",80 ng/g
same,concentration at 0.25 h,"Sprague-Dawley, plasma, rat, topical eye 100 mg/ml (eye drop of 10 μl) = 1 mg, 0.25 h, read-out: CDO concentrations Plasma",220 ng/g
same,concentration at 1 h,"Sprague-Dawley, plasma, rat, topical eye 100 mg/ml (eye drop of 10 μl) = 1 mg, 1 h, read-out: CDO concentrations Plasma",370 ng/g
same,concentration at 3 h,"Sprague-Dawley, plasma, rat, topical eye 100 mg/ml (eye drop of 10 μl) = 1 mg, 3 h, read-out: CDO concentrations Plasma",280 ng/g
same,concentration at 1 h,"Sprague-Dawley, retina/choroid, rat, topical eye 100 mg/ml (eye drop of 10 μl) = 1 mg, 1 h, read-out: CDO concentrations Retina/Choroid",1520 ng/g
same,concentration at 3 h,"Sprague-Dawley, retina/choroid, rat, topical eye 100 mg/ml (eye drop of 10 μl) = 1 mg, 3 h, read-out: CDO concentrations Retina/Choroid",1570 ng/g
same,CDO amounts in target tissues (optic nerve and retina choroids) 6 hours after topical ocular administration,"rat, 6 hours after topical ocular administration",could be detected
same,CDO concentrations Optic nerve,[1],—
same,CDO concentrations Retina,[1],—
same,CDO concentrations Optic nerve,[2],—
same,CDO concentrations Retina,[2],—
same,CDO concentrations Retina,"rat, oral 50 mg/Kg = 10 mg, 3 h",—
same,CDO concentrations Retina,"rat, oral 50 mg/Kg = 10 mg, 6 h",—
same,amount of CDO orally administered showing equivalent levels in retina to 1 mg CDO instilled onto the eye surface,"rat, single dose",40 to 150 mg
same,CDO concentrations Retina,"rat, topical eye 10 mg/ml (eye drop of 10 μl) = 0.1 mg, 1 h",—
same,CDO concentrations Optic nerve,[3],—
same,CDO concentrations Retina,[3],—
same,CDO concentrations Retina,"rat, topical eye 10 mg/ml (eye drop of 10 μl) = 0.1 mg, 6 h",—
same,plasmatic levels after topical eye administration,"rats, topical eye administration",low plasmatic levels
